According to ChEMBL document CHEMBL3091290, “2-(2-Phenylmorpholin-4-yl)pyrimidin-4(3H)-ones; a new class of potent, selective and orally active glycogen synthase kinase-3β inhibitors” (Bioorg Med Chem Lett, 2013):

Legend:
Liver microsome [1] = experiment: Intrinsic clearance in human liver microsomes; format: ADME
Cytochrome P450 2D6 = Cytochrome P450 2D6 (Homo sapiens, UniProt P10635); experiment: Inhibition of recombinant human CYP2D6; format: ADME
Cytochrome P450 1A2 = target: T1, Cytochrome P450 1A2 (Homo sapiens, UniProt P05177); experiment: Inhibition of recombinant human CYP1A2; format: ADME
T1 sequence (P05177 whole entry): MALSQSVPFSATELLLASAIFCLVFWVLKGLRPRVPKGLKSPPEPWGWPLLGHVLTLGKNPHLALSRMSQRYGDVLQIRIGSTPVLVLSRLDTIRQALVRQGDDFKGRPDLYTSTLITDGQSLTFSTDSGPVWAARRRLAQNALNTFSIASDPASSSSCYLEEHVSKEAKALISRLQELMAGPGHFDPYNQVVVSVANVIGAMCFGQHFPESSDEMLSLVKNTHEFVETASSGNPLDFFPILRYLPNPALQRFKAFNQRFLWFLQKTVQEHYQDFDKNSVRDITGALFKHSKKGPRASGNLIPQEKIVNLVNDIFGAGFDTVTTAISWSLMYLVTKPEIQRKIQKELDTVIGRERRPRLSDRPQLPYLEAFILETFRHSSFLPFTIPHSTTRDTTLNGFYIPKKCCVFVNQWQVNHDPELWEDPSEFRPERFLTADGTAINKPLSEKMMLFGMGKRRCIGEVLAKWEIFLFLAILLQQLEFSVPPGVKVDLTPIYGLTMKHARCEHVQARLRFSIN

[2] = target: Glycogen synthase kinase-3 beta (Homo sapiens, UniProt P49841); experiment: Inhibition of human recombinant GSK-3beta using prephosphorylated GS1 peptide and [gamma-32P]ATP as substrate after 1 hr by liquid scintillation spectrometry
Chain of Glycogen synthase kinase-3 beta (P49841 whole entry): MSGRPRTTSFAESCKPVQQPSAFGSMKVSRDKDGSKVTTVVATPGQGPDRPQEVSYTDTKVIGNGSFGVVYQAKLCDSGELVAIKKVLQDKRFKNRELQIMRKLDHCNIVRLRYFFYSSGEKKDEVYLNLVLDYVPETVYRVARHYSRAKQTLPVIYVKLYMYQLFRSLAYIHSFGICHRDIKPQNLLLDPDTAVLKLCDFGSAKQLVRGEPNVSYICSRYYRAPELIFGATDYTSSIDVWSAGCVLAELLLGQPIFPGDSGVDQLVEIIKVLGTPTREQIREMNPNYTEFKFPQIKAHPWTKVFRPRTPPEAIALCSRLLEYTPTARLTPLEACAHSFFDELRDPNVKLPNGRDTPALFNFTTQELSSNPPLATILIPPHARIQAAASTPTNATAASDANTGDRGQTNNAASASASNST

Cytochrome P450 3A4 = Cytochrome P450 3A4 (Homo sapiens, UniProt P08684); experiment: Inhibition of recombinant human CYP3A4; format: ADME
Chain of Cytochrome P450 3A4 (P08684 whole entry): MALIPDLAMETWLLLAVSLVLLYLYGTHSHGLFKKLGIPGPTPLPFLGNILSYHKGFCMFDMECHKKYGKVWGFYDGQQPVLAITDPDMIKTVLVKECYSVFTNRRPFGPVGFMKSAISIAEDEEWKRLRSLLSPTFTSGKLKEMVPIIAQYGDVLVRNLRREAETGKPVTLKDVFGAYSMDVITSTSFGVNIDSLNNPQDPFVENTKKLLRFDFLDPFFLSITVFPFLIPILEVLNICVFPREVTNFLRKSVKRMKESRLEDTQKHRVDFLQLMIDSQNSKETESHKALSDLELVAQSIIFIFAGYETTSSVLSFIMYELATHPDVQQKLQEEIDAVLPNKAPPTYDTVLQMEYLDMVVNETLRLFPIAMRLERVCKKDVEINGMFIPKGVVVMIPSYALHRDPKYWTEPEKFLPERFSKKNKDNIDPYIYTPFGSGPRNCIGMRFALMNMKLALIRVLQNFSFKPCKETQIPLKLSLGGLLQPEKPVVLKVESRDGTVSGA

Liver microsome [3] = experiment: Clearance in rat liver microsomes; format: ADME
MDR1 (P-glycoprotein) = experiment: Permeability efflux ratio in MDR1 expressing pig LLC cells; format: ADME, cell-based, Sus scrofa; conditions: LLC-PK1
[4] = Oral bioavailability in Sprague-Dawley rat at 10 mg/kg; format: ADME, organism-based; conditions: in vivo
[5] = Permeability of the compound across human Caco2 cells; format: ADME, cell-based; conditions: Caco-2, read-out: permeability
[6] = Ratio of drug level in brain (0 to infinity) to plasma (0 to infinity) in ICR mouse at 1 mg/kg, po; format: ADME, organism-based; set-up: dose 1 mg/kg, route oral; conditions: read-out: BPR
[7] = AUC (0 to infinity) in Sprague-Dawley rat at 10 mg/kg, po; format: ADME, organism-based; set-up: time infinity, dose 10 mg/kg, route oral; conditions: plasma
Rattus norvegicus = experiment: Cmax in Sprague-Dawley rat at 10 mg/kg, po; format: ADME, organism-based; set-up: dose 10 mg/kg, route oral; conditions: in vivo
[8] = Volume of distribution at steady state in Sprague-Dawley rat at 1 mg/kg, iv; format: ADME, organism-based; set-up: dose 1 mg/kg, route intravenous; conditions: in vivo, read-out: Vdss
[9] = Half life in Sprague-Dawley rat at 10 mg/kg, po; format: ADME, organism-based; set-up: dose 10 mg/kg, route oral; conditions: in vivo
[10] = target: Casein kinase I isoform alpha (Homo sapiens, UniProt P48729); experiment: Inhibition of CK1 (unknown origin)
Chain of Casein kinase I isoform alpha (P48729 whole entry, canonical isoform): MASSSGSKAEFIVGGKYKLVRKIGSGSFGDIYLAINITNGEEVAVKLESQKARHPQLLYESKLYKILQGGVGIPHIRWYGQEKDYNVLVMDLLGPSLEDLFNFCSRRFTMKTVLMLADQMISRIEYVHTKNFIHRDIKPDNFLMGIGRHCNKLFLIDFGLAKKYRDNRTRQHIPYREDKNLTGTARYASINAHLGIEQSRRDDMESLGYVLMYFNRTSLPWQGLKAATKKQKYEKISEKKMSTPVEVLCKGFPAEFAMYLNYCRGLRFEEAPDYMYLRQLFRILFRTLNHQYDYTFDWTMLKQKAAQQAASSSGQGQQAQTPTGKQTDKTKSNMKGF

[11] = Total clearance in Sprague-Dawley rat at 1 mg/kg, iv; format: ADME, organism-based; set-up: dose 1 mg/kg, route intravenous; conditions: in vivo

Chain of Cytochrome P450 2D6 (P10635 whole entry): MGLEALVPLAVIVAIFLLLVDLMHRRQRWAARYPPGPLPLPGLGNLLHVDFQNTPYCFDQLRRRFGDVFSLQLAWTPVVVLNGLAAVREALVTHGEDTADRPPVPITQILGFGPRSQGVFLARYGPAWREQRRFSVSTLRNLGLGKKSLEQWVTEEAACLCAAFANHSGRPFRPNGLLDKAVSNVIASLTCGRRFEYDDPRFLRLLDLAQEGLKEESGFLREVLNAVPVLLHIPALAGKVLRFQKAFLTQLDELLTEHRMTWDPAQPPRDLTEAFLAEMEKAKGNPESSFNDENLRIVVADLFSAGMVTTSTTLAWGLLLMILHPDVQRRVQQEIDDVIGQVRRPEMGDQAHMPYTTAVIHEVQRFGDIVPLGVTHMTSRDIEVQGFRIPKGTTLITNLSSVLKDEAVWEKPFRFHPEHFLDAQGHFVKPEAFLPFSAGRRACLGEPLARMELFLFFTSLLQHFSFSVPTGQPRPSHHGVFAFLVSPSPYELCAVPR

Row | Compound | Intrinsic clearance (Liver microsome [1]) | IC50 (Cytochrome P450 2D6) | IC50 (Cytochrome P450 1A2) | IC50 [2] | IC50 (Cytochrome P450 3A4) | further results
1 | Cn1c(N2CCO[C@@H](c3ccc(C#N)cc3F)C2)nc(-c2ccncn2)cc1=O | 30 µL/min/mg | 26.7 µM | > 50 µM | 0.0065 µM | – | –
2 | Cn1c(N2CCOC(c3ccccc3)C2)nc(-c2ccncc2)cc1=O (racemic) | – | 47.4 µM | 23.1 µM | 0.051 µM | > 50 µM | CLH (Liver microsome [3]): 155 µL/min/mg
3 | Cn1c(N2CCO[C@@H](c3ccc(F)cc3)C2)nc(-c2ccncc2)cc1=O | – | 44.2 µM | 17.1 µM | 0.022 µM | > 50 µM | –
4 | Cn1c(N2CCO[C@@H](c3ccccc3F)C2)nc(-c2ccncn2)cc1=O | 100 µL/min/mg | 32.4 µM | 23.3 µM | 0.0032 µM | – | –
5 | Cn1c(N2CCO[C@@H](c3ccc(F)cc3)C2)nc(-c2ccncn2)cc1=O | 60 µL/min/mg | 39.7 µM | 29.4 µM | 0.012 µM | > 50 µM | efflux ratio (MDR1 (P-glycoprotein)): 1; bioavailability [4]: 37%; Papp [5]: 58.3 ×10⁻⁶ cm/s; Kp [6]: 3.1; AUC(0-inf) [7]: 1300 ng·h/mL; Cmax (Rattus norvegicus): 221 ng/mL; Vd [8]: 2.4 L/kg; half-life [9]: 1.7 h; IC50 [10]: 1.5 µM; clearance [11]: 48.3 mL/min/kg
6 | COc1ccc([C@H]2CN(c3nc(-c4ccncn4)cc(=O)n3C)CCO2)cc1 | 110 µL/min/mg | 6.9 µM | > 50 µM | 0.0029 µM | – | –
7 | Cn1c(N2CCO[C@@H](c3ccc(F)cc3)C2)nc(-c2ccnc(Cl)c2)cc1=O | – | – | – | 0.903 µM | – | –
8 | COc1cccc(OC)c1[C@H]1CN(c2nc(-c3ccncn3)cc(=O)n2C)CCO1 | 200 µL/min/mg | > 50 µM | > 50 µM | 0.00023 µM | – | –
9 | COc1ccccc1[C@H]1CN(c2nc(-c3ccncn3)cc(=O)n2C)CCO1 | 190 µL/min/mg | 16 µM | 15.7 µM | 0.00087 µM | – | –
10 | COc1cc(F)ccc1[C@H]1CN(c2nc(-c3ccncn3)cc(=O)n2C)CCO1 | 180 µL/min/mg | 18 µM | 16.5 µM | 0.00047 µM | – | –
11 | Cn1c(N2CCO[C@@H](c3ccc(F)cc3)C2)nc(-c2ccncc2Cl)cc1=O | – | – | – | 0.43 µM | – | –
12 | COc1cccc([C@H]2CN(c3nc(-c4ccncn4)cc(=O)n3C)CCO2)c1 | 130 µL/min/mg | 26.6 µM | > 50 µM | 0.0046 µM | > 50 µM | –
13 | Cc1cnccc1-c1cc(=O)n(C)c(N2CCO[C@@H](c3ccc(F)cc3)C2)n1 | – | – | – | 2.47 µM | – | –
14 | Cn1c(NCC(=O)c2ccccc2)nc(-c2ccncc2)cc1=O | – | > 50 µM | – | – | > 50 µM | –
15 | Cn1c(N2CCO[C@@H](c3ccc(C#N)cc3)C2)nc(-c2ccncn2)cc1=O | 30 µL/min/mg | 4.5 µM | > 50 µM | 0.013 µM | – | –
16 | Cn1c(N2CCO[C@@H](c3ccc(F)cc3)C2)nc(-c2ccncc2F)cc1=O | – | 22.1 µM | 5.5 µM | 0.0074 µM | > 50 µM | –
17 | COc1cnccc1-c1cc(=O)n(C)c(N2CCO[C@@H](c3ccc(F)cc3)C2)n1 | – | – | – | 0.791 µM | – | –
18 | Cn1c(N2CCOC(c3ccc(F)cc3)C2)nc(-c2ccncc2)cc1=O (racemic) | – | 35.8 µM | 23.9 µM | 0.027 µM | > 50 µM | CLH (Liver microsome [3]): 104 µL/min/mg
19 | Cn1c(N2CCO[C@@H](c3c(F)cccc3Cl)C2)nc(-c2ccncn2)cc1=O | 70 µL/min/mg | 32.3 µM | 19.5 µM | 0.00064 µM | – | –
20 | Cn1c(N2CCO[C@H](c3ccc(F)cc3)C2)nc(-c2ccncc2)cc1=O | – | – | – | 0.077 µM | – | –
